According to US9170257B2 (priority 2012, dated 2015):
Where two headings read alike, the source gives them in different places.

Test: Plasma, urine and bile levels of curcumin and THC 15 minutes post-infusion
Format: in vivo, Beagle dogs
Settings: for Plasma level / concentration at 15 min: mean±SE; for concentration at 15 min / Kp: both sexes, dog, in vivo, 10 mg/kg; for concentration at 15 min: Beagle; for Kp: beagle
Experimental: The results and analysis for the study are presented for intravenous infusion dosing of a total dose of 10 mg/kg infused over a period of either 2 or 8 hours. Plasma levels of curcumin and its metabolite, THC were measured at timed intervals post-dosing.
Bioanalysis was performed on two sets of samples, one set that was treated with phosphoric acid and one set that was not treated with phosphoric acid. […] Values that were below the limit of quantification were assigned a value of 0.
Fifteen minutes following either the 2 hour or 8 hour infusion, blood, urine and bile samples were taken, prior to the dogs being necropsied and organs removed for the isolation of tissues. Multiple samples of tissue weighing approximately 1 gram were removed and snap frozen in the presence or absence of phosphoric acid (H3PO4). For all tissue samples, the levels of curcumin and THC were determined using a method developed by the Bioanalytical Department at Nucro-Technics. […] Values that were below the limit of quantification were assigned a value of 0. […] Tissue distribution data was analyzed using, unless stated, the data from 4 dogs and are presented as the mean±standard error (S.E.).

In the case of `COc1cc(CCC(=O)CC(=O)CCc2ccc(O)c(OC)c2)ccc1O` [THC, tetrahydrocurcumin], the Plasma level (15 min after 2 hour infusion, + H3PO4) is reported as 1167 ± 379 ng/mL, the Plasma level (15 min after 8 hour infusion, no H3PO4) is reported as 20 ± 4^2 ng/mL and the concentration at 15 min (15 min after 2 hour infusion, + H3PO4, read-out: Bile level) is reported as 391 ± 197 ng/mL. For the same compound, the concentration at 15 min (15 min after 2 hour infusion, + H3PO4, read-out: Urine level) was 3590 ± 1080 ng/mL, the concentration at 15 min (15 min after 2 hour infusion, no H3PO4, read-out: Bile level) was 187 ± 74 ng/mL and the concentration at 15 min (15 min after 2 hour infusion, no H3PO4, read-out: Plasma level) was 38 ± 4 ng/mL. It also gave a concentration at 15 min (15 min after 2 hour infusion, no H3PO4, read-out: Urine level) of 6420 ± 1450 ng/mL, a concentration at 15 min (15 min after 8 hour infusion, + H3PO4, read-out: Bile level) of 168 ± 53 ng/mL and a concentration at 15 min (15 min after 8 hour infusion, + H3PO4, read-out: Plasma level) of 142 ± 122 ng/mL. The concentration at 15 min (15 min after 8 hour infusion, + H3PO4, read-out: Urine level) was 621 ± 206 ng/mL, the concentration at 15 min (15 min after 8 hour infusion, no H3PO4, read-out: Bile level) was 84 ± 12 ng/mL and the concentration at 15 min (15 min after 8 hour infusion, no H3PO4, read-out: Urine level) was 2450 ± 84 ng/mL. It also gave a Kp (higher infusion rate (5 mg/kg/hr), read-out: bile to plasma concentration ratio) of 1.2, a Kp (higher infusion rate (5 mg/kg/hr), read-out: urine to plasma concentration ratio) of 4.4 and a Kp (low infusion rate (1.25 mg/kg/hr), read-out: bile to plasma concentration ratio) of 0.3. It also gave a Kp (low infusion rate (1.25 mg/kg/hr), read-out: urine to plasma concentration ratio) of 3.1.
